The source of these data is patent publication EP4667483A1, “HUMAN TRANSFERRIN RECEPTOR-BINDING PEPTIDE” (JCR Pharmaceuticals Co., Ltd., priority 2023, dated 2024).

The target in test [1] is T1, human transferrin receptor (hTfR) (Homo sapiens, UniProt P02786). Kind of test: SPR measurement under pH 6.0 conditions (Biacore T200, NTA chip, immobilized hTfR). The conditions noted are these: pH 6.0, single-cycle kinetics; read-out: hTfR SPR pH6.0 KD. The format is binding. On the technique in general: In SPR one partner is held on a chip, and binding of the other changes the refractive index at the surface.

In test [2] the target is T1, human transferrin receptor (hTfR). Kind of test: SPR measurement under pH 7.4 conditions (Biacore T200, CM3 chip, hTfR captured by His Tag antibody). The format is binding. As to conditions: pH 7.4, single-cycle kinetics; read-out: hTfR SPR pH7.4 KD.

Structures are written as SMILES. Numbered stars: 1 amine (or outer) side, 2 acyl side, 3 side chain; on linkers, the order of the positions; unused ones are H or OH. Bridge positions count the residues as written; N and C are the ends. Square brackets hold non-standard residues; d marks the D form. Side chains are listed from the residue outwards. Peptide text beside a SMILES is read from it. * marks the point of attachment. NH(1-deoxy-D-glucityl) = OC[C@@H](O)[C@@H](O)[C@H](O)[C@@H](O)CN*; Trp(1-CH2COOH) = N[C@@H](Cc1cn(CC(=O)O)c2ccccc12)C(=O)O; CH2CON(CH2CH2)2NCH2COOH = O=C(O)CN1CCN(C(=O)C*)CC1; Nle(6-morpholino) = N[C@@H](CCCCN1CCOCC1)C(=O)O; Trp(7-aza) = N[C@@H](Cc1c[nH]c2ncccc12)C(=O)O; NMePhe(3-Cl) = CN[C@@H](Cc1cccc(Cl)c1)C(=O)O; Piperazinyl(4-CH2COOH) = O=C(O)CN1CCN(*)CC1; 3Pal(6-NH2) = Nc1ccc(C[C@H](N)C(=O)O)cn1; NMeY = CN[C@@H](Cc1ccc(O)cc1)C(=O)O; 4Pal = N[C@@H](Cc1ccncc1)C(=O)O; PEG4 = NCCOCCOCCOCCOCCC(=O)O; Carboxymethyl = O=C(O)C*; CO = O=C([*:1])[*:2]

T1 sequence (P02786 whole entry): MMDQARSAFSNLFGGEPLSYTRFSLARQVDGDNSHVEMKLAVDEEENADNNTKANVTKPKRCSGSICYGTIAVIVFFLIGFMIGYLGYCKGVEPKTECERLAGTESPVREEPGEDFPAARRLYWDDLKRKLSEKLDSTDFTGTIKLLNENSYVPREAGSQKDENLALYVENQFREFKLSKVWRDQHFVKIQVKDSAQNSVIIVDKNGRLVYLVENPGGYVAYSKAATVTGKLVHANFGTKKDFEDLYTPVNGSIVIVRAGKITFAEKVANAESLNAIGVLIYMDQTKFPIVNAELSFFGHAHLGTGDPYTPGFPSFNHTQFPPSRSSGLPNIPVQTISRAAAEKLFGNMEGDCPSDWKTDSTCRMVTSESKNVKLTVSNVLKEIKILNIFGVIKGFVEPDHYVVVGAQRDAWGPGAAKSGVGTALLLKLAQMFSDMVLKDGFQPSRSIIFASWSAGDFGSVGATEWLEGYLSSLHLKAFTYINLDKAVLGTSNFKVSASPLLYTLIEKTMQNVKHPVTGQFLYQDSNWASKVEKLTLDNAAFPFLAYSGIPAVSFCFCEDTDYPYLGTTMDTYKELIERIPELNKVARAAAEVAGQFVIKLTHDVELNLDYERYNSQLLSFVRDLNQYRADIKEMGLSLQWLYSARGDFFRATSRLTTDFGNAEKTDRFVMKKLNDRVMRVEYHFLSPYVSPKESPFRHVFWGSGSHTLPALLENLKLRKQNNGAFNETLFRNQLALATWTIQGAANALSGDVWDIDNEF

What is called Kd is the constant that tells how readily two partners part at equilibrium. `CC[C@H](C)[C@@H]1NC(=O)[C@H](Cc2ccc(OCC(=O)NC[C@H](O)[C@@H](O)[C@H](O)[C@H](O)CO)cc2)NC(=O)[C@H](Cc2ccc(N)nc2)NC(=O)[C@H](CC(N)=O)NC(=O)[C@H](Cc2c[nH]c3ncccc23)NC(=O)[C@H](C(C)C)NC(=O)[C@H](Cc2cccc(Cl)c2)N(C)C(=O)[C@H](C(C)C)NC(=O)[C@H](C)NC(=O)CSC[C@@H](C(=O)NCCOCCOCCOCCOCCC(N)=O)NC(=O)[C@H](Cc2ccc(O)cc2)N(C)C(=O)[C@H](Cc2ccncc2)NC(=O)[C@H](CCCNC(=N)N)NC(=O)[C@H](CCC(=O)NC[C@H](O)[C@@H](O)[C@H](O)[C@H](O)CO)NC(=O)[C@H]([C@@H](C)CC)NC1=O` [compound 12]: the Kd worked out at 137 nM in test [1] and 7.12 nM in test [2].

Take `CC[C@H](C)[C@@H]1NC(=O)[C@H](Cc2ccc(OCC(=O)O)cc2)NC(=O)[C@H](Cc2ccc(N)nc2)NC(=O)[C@H](CC(N)=O)NC(=O)[C@H](Cc2c[nH]c3ncccc23)NC(=O)[C@H](C(C)C)NC(=O)[C@H](Cc2cccc(Cl)c2)N(C)C(=O)[C@H](C(C)C)NC(=O)[C@H](C)NC(=O)CSC[C@@H](C(=O)NCCOCCOCCOCCOCCC(N)=O)NC(=O)[C@H](Cc2ccc(O)cc2)N(C)C(=O)[C@H](Cc2ccncc2)NC(=O)[C@H](CCCNC(=N)N)NC(=O)[C@H](CCCCNC(=O)N2CCN(CC(=O)O)CC2)NC(=O)[C@H]([C@@H](C)CC)NC1=O` [compound 14] ({CH2CO}-AV[NMePhe(3-Cl)]V[Trp(7-aza)]N[3Pal(6-NH2)]Y(Carboxymethyl)IIK([CO-Piperazinyl(4-CH2COOH)])R[4Pal][NMeY]C[PEG4]-NH2; thioether N-15): the Kd in test [1] was 108 nM; in test [2] it was 30.8 nM.

Take `CC[C@H](C)[C@@H]1NC(=O)[C@H](Cc2ccc(OCC(=O)O)cc2)NC(=O)[C@H](Cc2ccc(N)nc2)NC(=O)[C@H](CC(N)=O)NC(=O)[C@H](Cc2c[nH]c3ncccc23)NC(=O)[C@H](C(C)C)NC(=O)[C@H](Cc2cccc(Cl)c2)N(C)C(=O)[C@H](C(C)C)NC(=O)[C@H](C)NC(=O)CSC[C@@H](C(=O)NCCOCCOCCOCCOCCC(N)=O)NC(=O)[C@H](Cc2ccc(O)cc2)N(C)C(=O)[C@H](Cc2ccncc2)NC(=O)[C@H](CCCCN2CCOCC2)NC(=O)[C@H](CCCCNC(=O)N2CCN(CC(=O)O)CC2)NC(=O)[C@H]([C@@H](C)CC)NC1=O` [compound 15] ({CH2CO}-AV[NMePhe(3-Cl)]V[Trp(7-aza)]N[3Pal(6-NH2)]Y(Carboxymethyl)IIK([CO-Piperazinyl(4-CH2COOH)])[Nle(6-morpholino)][4Pal][NMeY]C[PEG4]-NH2; thioether N-15): the Kd in test [1] was determined as 102 nM; in test [2], 15.9 nM.

Take `CC[C@H](C)[C@@H]1NC(=O)[C@H](Cc2ccc(OCC(=O)N3CCN(CC(=O)O)CC3)cc2)NC(=O)[C@H](Cc2ccc(O)cc2)NC(=O)[C@H](CC(N)=O)NC(=O)[C@H](Cc2c[nH]c3ncccc23)NC(=O)[C@H](C(C)C)NC(=O)[C@H](Cc2cccc(Cl)c2)N(C)C(=O)[C@H](C(C)C)NC(=O)[C@H](C)NC(=O)CSC[C@@H](C(=O)NCCOCCOCCOCCOCCC(N)=O)NC(=O)[C@H](Cc2ccc(O)cc2)N(C)C(=O)[C@H](Cc2ccncc2)NC(=O)[C@H](CCCNC(=N)N)NC(=O)[C@H](CCC(N)=O)NC(=O)[C@H]([C@@H](C)CC)NC1=O` [compound 16]: the Kd is 40.3 nM in test [1] and 2.94 nM in test [2].

`CC[C@H](C)[C@@H]1NC(=O)[C@H](Cc2ccc(OCC(=O)N3CCN(CC(=O)O)CC3)cc2)NC(=O)[C@H](Cc2ccc(N)nc2)NC(=O)[C@H](CC(N)=O)NC(=O)[C@H](Cc2cn(CC(=O)O)c3ccccc23)NC(=O)[C@H](C(C)C)NC(=O)[C@H](Cc2cccc(Cl)c2)N(C)C(=O)[C@H](C(C)C)NC(=O)[C@H](C)NC(=O)CSC[C@@H](C(=O)NCCOCCOCCOCCOCCC(N)=O)NC(=O)[C@H](Cc2ccc(O)cc2)N(C)C(=O)[C@H](Cc2ccncc2)NC(=O)[C@H](CCCCN2CCOCC2)NC(=O)[C@H](CCCCNC(=O)N2CCN(CC(=O)O)CC2)NC(=O)[C@H]([C@@H](C)CC)NC1=O` [compound 17] ({CH2CO}-AV[NMePhe(3-Cl)]V[Trp(1-CH2COOH)]N[3Pal(6-NH2)]Y(CH2CON(CH2CH2)2NCH2COOH)IIK([CO-Piperazinyl(4-CH2COOH)])[Nle(6-morpholino)][4Pal][NMeY]C[PEG4]-NH2; thioether N-15): the Kd was found to be 501 nM in test [1] and 4.25 nM in test [2].

Turning to `CC[C@H](C)[C@@H]1NC(=O)[C@H](Cc2ccc(OCC(=O)N3CCN(CC(=O)O)CC3)cc2)NC(=O)[C@H](Cc2ccc(O)cc2)NC(=O)[C@H](CC(N)=O)NC(=O)[C@H](Cc2c[nH]c3ncccc23)NC(=O)[C@H](C(C)C)NC(=O)[C@H](Cc2cccc(Cl)c2)N(C)C(=O)[C@H](C(C)C)NC(=O)[C@H](C)NC(=O)CSC[C@@H](C(=O)NCCOCCOCCOCCOCCC(N)=O)NC(=O)[C@H](Cc2ccc(O)cc2)N(C)C(=O)[C@H](Cc2ccncc2)NC(=O)[C@H](CCCNC(=N)N)NC(=O)[C@H](CCCCNC(=O)N2CCN(CC(=O)O)CC2)NC(=O)[C@H]([C@@H](C)CC)NC1=O` [compound 18], the Kd stood at 30 nM in test [1] and 1.88 nM in test [2].

For `CC[C@H](C)[C@@H]1NC(=O)[C@H](Cc2ccc(OCC(=O)N3CCN(CC(=O)O)CC3)cc2)NC(=O)[C@H](Cc2ccc(O)cc2)NC(=O)[C@H](CC(N)=O)NC(=O)[C@H](Cc2c[nH]c3ncccc23)NC(=O)[C@H](C(C)C)NC(=O)[C@H](Cc2cccc(Cl)c2)N(C)C(=O)[C@H](C(C)C)NC(=O)[C@H](C)NC(=O)CSC[C@@H](C(=O)NCCOCCOCCOCCOCCC(N)=O)NC(=O)[C@H](Cc2ccc(O)cc2)N(C)C(=O)[C@H](Cc2ccncc2)NC(=O)[C@H](CCCCN2CCOCC2)NC(=O)[C@H](CCCCNC(=O)N2CCN(CC(=O)O)CC2)NC(=O)[C@H]([C@@H](C)CC)NC1=O` [compound 19] ({CH2CO}-AV[NMePhe(3-Cl)]V[Trp(7-aza)]NYY(CH2CON(CH2CH2)2NCH2COOH)IIK([CO-Piperazinyl(4-CH2COOH)])[Nle(6-morpholino)][4Pal][NMeY]C[PEG4]-NH2; thioether N-15), the dissociation constant (Kd) in test [1] is 7.92 nM; in test [2], 4.82 nM.

Consider `CC[C@H](C)[C@@H]1NC(=O)[C@H](Cc2ccc(OC)cc2)NC(=O)[C@H](Cc2ccc(N)nc2)NC(=O)[C@H](CC(N)=O)NC(=O)[C@H](Cc2c[nH]c3ncccc23)NC(=O)[C@H](C(C)C)NC(=O)[C@H](Cc2cccc(Cl)c2)N(C)C(=O)[C@H](C(C)C)NC(=O)[C@H](C)NC(=O)CSC[C@@H](C(=O)NCCOCCOCCOCCOCCC(N)=O)NC(=O)[C@H](Cc2ccc(O)cc2)N(C)C(=O)[C@H](Cc2ccncc2)NC(=O)[C@H](CCCCN2CCOCC2)NC(=O)[C@H](CCC(=O)NC[C@H](O)[C@@H](O)[C@H](O)[C@H](O)CO)NC(=O)[C@H]([C@@H](C)CC)NC1=O` [compound 20] ({CH2CO}-AV[NMePhe(3-Cl)]V[Trp(7-aza)]N[3Pal(6-NH2)]Y(Me)IIE(NH(1-deoxy-D-glucityl))[Nle(6-morpholino)][4Pal][NMeY]C[PEG4]-NH2; thioether N-15), for which the results for the Kd in test [1] and in test [2] were 41.3 nM and 4.08 nM, respectively.
